Laboratory results reported in patent US9630931B2, “Pharmaceutically active pyrazine derivatives” (Sentinel Oncology Limited, priority 2011, dated 2017).
Structures can show the parent of a compound that is named as a salt.

How the values were obtained:
Chk-1 kinase = Chk-1 kinase (Homo sapiens (Human), UniProt O14757); experiment: Chk-1 kinase inhibiting activity (33P-ATP radiometric filter assay, CHKtide substrate); type: biochemical; settings: recombinant full length GST-tagged CHK-1 0.5 nM, CHKtide 20 μM, 120 minutes at room temperature; read-out: IC50 against Chk-1 kinase
Procedure: The compounds of the invention were tested for activity against Chk-1 kinase using the materials and protocols set out below.
Base Reaction buffer: 20 mM Hepes (pH 7.5), 10 mM MgCl2, 1 mM EGTA, 0.02% Brij35, 0.02 mg/ml BSA, 0.1 mM Na3VO4, 2 mM DTT, 1% DMSO
Required cofactors are added individually to each kinase reaction
(i) Prepare indicated substrate in freshly prepared Base Reaction Buffer
(ii) Deliver any required cofactors to the substrate solution above
(iii) Deliver indicated kinase into the substrate solution and gently mix
(iv) Deliver compounds in DMSO into the kinase reaction mixture
(v) Deliver ^33P-ATP (specific activity 0.01 μCi/μl final) into the reaction mixture to initiate the reaction.
(vi) Incubate kinase reaction for 120 minutes at room temperature
(vii) Reactions are spotted onto P81 ion exchange paper (Whatman #3698-915)
(viii) Wash filters extensively in 0.1% phosphoric acid.
(ix) Dry filters and measure counts in scintillation counter
Recombinant full length construct, N-terminal GST tagged, purified from insect cells.
No special measures were taken to activate this kinase.
Final concentration in assay=0.5 nM
Peptide sequence: [[…]]
Final concentration in assay=20 μM
No additional cofactors are added to the reaction mixture
From the results obtained by following the above protocol, the IC50 values against Chk-1 kinase of a number of the compounds of the Examples were determined and these are shown in Table 3.

MOLM-13 cells = experiment: Inhibition of cell growth in MOLM-13 cells (Alamar blue, 72 h); type: cell-based; settings: Homo sapiens, 72 h incubation
Procedure: (§1) Studies were carried out to test the effect of compounds on the inhibition of cell growth in MOLM-13 and MV4-11 cells.
(§2) The following protocol was used:
(§3) (a) Cells were seeded in 96-well plates at cell densities of 2500/well (MOLM-13) and 10,000/well (MV4-11). Cells were then incubated overnight prior to addition of compound or vehicle control.
(§4) (b) Test compounds were prepared from 10 mM DMSO stocks to give a final concentration range of 10 μM, 3 μM, 1 μM, 0.3 μM, […], 0.03 μM, 0.01 μM, […] vehicle control. The DMSO content was constant at 0.1%.
(§5) (c) Test compounds were incubated with the cells for 72 h at 37° C. 5% CO2 in a humidified atmosphere.
(§6) (d) Alamar blue 10% (v/v) was then added and incubated for a further 4 h, and fluorescent product detected using the BMG FLUOstar plate reader.
(§7) (e) Media only background values were subtracted and the data analysed using a 4-parameter logistic equation in GraphPad Prism.

MV4-11 cells = experiment: Inhibition of cell growth in MV4-11 cells (Alamar blue, 72 h); type: cell-based; settings: Homo sapiens, 72 h incubation
Procedure: as §1, §2, §3, §4, §5, §6, §7

[1] = system: thirty ovarian cancer cell lines; settings: cited from earlier work
[2] = system: triple negative negative breast cancer cells; settings: cited from earlier work
[3] = system: MYC oncogene driven murine spontaneous cancer model; settings: cited from earlier work

Chk-1 kinase, sequence (O14757 whole entry): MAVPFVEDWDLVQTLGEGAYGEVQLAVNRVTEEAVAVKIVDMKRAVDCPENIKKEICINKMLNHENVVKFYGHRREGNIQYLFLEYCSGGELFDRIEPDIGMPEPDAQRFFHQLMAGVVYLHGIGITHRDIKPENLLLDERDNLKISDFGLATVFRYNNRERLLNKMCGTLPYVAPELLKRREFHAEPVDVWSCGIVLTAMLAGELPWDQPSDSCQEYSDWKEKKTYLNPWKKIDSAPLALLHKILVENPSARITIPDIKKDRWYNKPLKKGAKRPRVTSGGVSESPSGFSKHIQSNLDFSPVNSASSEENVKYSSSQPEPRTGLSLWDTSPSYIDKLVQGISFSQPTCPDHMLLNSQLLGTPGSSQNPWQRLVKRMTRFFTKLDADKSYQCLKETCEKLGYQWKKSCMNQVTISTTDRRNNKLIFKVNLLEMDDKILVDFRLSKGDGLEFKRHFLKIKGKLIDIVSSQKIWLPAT

SMILES | IC50 (Chk-1 kinase) | IC50 (MOLM-13 cells) | IC50 (MV4-11 cells) | growth of ovarian cancer cell lines [1] | growth of triple negative breast cancer cells [2] | single agent activity in MYC oncogene driven murine spontaneous cancer model [3]
COc1cc(CCNCC2CNCCO2)c(Cl)cc1NC(=O)Nc1cnc(C#N)cn1 (stereo not drawn) [Example 2, 1-(5-Chloro-2-methoxy-4-{2-[(morpholin-2-ylmethyl)-amino]-ethyl}-phenyl)-3-(5-cyano-pyrazin-2-yl)-urea hydrochloride] | 0.09 nM | 26 nM | 209 nM | – | – | –
Cn1cc(-c2[nH]c3cc(NC(=O)[C@H](N)C4CCCCC4)cc4c3c2C=NNC4=O)cn1 [PF-00477736] | – | – | – | inhibits the growth | inhibits the growth | selective single agent activity
COc1cc(CCNC[C@H]2CNCCO2)c(Cl)cc1NC(=O)Nc1cnc(C#N)cn1 [Example 4, 1-(5-Chloro-2-methoxy-4-{2-[((S)-1-morpholin-2-ylmethyl)-amino]-ethyl}-phenyl)-3-(5-cyano-pyrazin-2-yl)-urea hydrochloride] | 0.05 nM | 49 nM | 111 nM | – | – | –
N#Cc1cnc(NC(=O)Nc2ccc(CCNCC3CCCCC3)c(Cl)c2)cn1 [Example 12, 1-{3-Chloro-4-[2-(cyclo-hexylmethyl-amino)-ethyl]-phenyl}-3-(5-cyano-pyrazin-2-yl)-urea hydrochloride] | 30 nM | 1600 nM | 740 nM | – | – | –
